IC50 data for three compounds are collected here from patent US6110949A, “N-(substituted glycyl)-4-cyanothiazolidines, pharmaceutical compositions containing them and their use in inhibiting dipeptidyl peptidase-IV” (Novartis AG, priority 1999, dated 2000).

SMILES strings stand for the structures. Counter-ions that a name gives are not always drawn.

In general, IC50 refers to the concentration that gives 50% inhibition. Lower therefore signals greater potency.

Format in all cases: biochemical
Assay [1] has as its target T1, DPP-IV (Caco-2 cell extract) (Homo sapiens, UniProt P27487).
T1 construct: adding 20 μg solubilized Caco-2 protein; endogenous in cells; host or cells: Caco-2 (ATCC HTB 37), differentiated to induce DPP-IV expression; nonidet-P40 extract
Description: Caco-2 DPP-IV Assay (inhibition of DPP-IV activity from human colonic carcinoma cell extracts). The note with it: substrate H-Alanine-Proline-pNA, pH 7.4, room temperature, 10 minutes. An excerpt:
As indicated above, all of the compounds of formula I, and their corresponding pharmaceutically acceptable acid addition salts, are useful in inhibiting DPP-IV. […] The human colonic carcinoma cell line Caco-2 was obtained from the American Type Culture Collection (ATCC HTB 37). Differentiation of the cells to induce DPP-IV expression was accomplished as described by Reisher, et al. in an article entitled "Increased expression of . . . intestinal cell line Caco-2" in Proc. Natl. Acad. Sci., Vol. 90, pgs. 5757-5761 (1993). Cell extract is prepared from cells solubilized in 10 mM Tris-HCl, 0.15 M NaCl, 0.04 t.i.u. aprotinin, 0.5% nonidet-P40, pH 8.0, which is centrifuged at 35,000 g for 30 min. at 4° C. to remove cell debris. The assay is conducted by adding 20 μg solubilized Caco-2 protein, diluted to a final volume of 125 μl in assay buffer (25 mM Tris-HCl pH 7.4, 140 mM NaCl, 10 mM KCl, 1% bovine serum albumin) to microtiter plate wells. The reaction is initiated by adding 25 μl of 1 mM substrate (H-Alanine-Proline-pNA; pNA is p-nitroaniline). The reaction is run at room temperature for 10 minutes after which time a 19 μl volume of 25% glacial acetic acid is added to stop the reaction. Test compounds are typically added as 30 μl additions and the assay buffer volume is reduced to 95 μl. A standard curve of free p-nitroaniline is generated using 0-500 μM solutions of free pNA in assay buffer. The curve generated is linear and is used for interpolation of substrate consumption (catalytic activity in nmoles substrate cleaved /min). The endpoint is determined by measuring absorbance at 405 nm in a Molecular Devices UV Max microtiter plate reader. The potency of the test compounds as DPP-IV inhibitors, expressed as IC50, is calculated from 8-point, dose-response curves using a 4-parameter logistic function.

The target in the next assay is T2, rat plasma DPP-IV (Rattus norvegicus, UniProt P14740).
T2 construct: from tissue; host or cells: rat plasma
Description: Inhibition of DPP-IV activity in rat plasma. The note with it: substrate H-Glycine-Proline-AMC, pH 7.8, room temperature, 20 min. How it is done:
(§1) 192-197 (1992). Briefly, five μl of plasma are added to 96-well flat-bottom mictotiter plates (Falcon), followed by the addition of 5 μl of 80 mM MgCI2 in incubation buffer (25 mM HEPES, 140 mM NaCl, 1% RIA-grade BSA, pH 7.8). After a 5 min. incubation at room temperature, the reaction is initiated by the addition of 10 μl of incubation buffer containing 0.1 mM substrate (H-Glycine-Proline-AMC; AMC is 7-amino-4-methylcoumarin). The plates are covered with aluminum foil (or kept in the dark) and incubated at room temperature for 20 min. After the 20 min. reaction, fluorescence is measured using a CytoFluor 2350 fluorimeter (Excitation 380 nm Emission 460 nm; sensitivity setting 4). Test compounds are typically added as 2 μl additions and the assay buffer volume is reduced to 13 μl. A fluorescence-concentration curve of free AMC is generated using 0-50 μM solutions of AMC in assay buffer. The curve generated is linear and is used for interpolation of substrate consumption (catalytic activity in nmoles substrate cleaved/min). As with the previous assay, the potency of the test compounds as DPP-IV inhibitors, expressed as IC50, is calculated from 8-point, dose-response curves using a 4 parameter logistic function.

Another assay concerns the target T3, human plasma DPP-IV (Homo sapiens, UniProt P27487).
T3 construct: from tissue; host or cells: human plasma
Description: Inhibition of DPP-IV activity in human plasma. The note with it: substrate H-Glycine-Proline-AMC, pH 7.8, room temperature, 20 min. The protocol: as §1

T1 sequence (P27487 whole entry): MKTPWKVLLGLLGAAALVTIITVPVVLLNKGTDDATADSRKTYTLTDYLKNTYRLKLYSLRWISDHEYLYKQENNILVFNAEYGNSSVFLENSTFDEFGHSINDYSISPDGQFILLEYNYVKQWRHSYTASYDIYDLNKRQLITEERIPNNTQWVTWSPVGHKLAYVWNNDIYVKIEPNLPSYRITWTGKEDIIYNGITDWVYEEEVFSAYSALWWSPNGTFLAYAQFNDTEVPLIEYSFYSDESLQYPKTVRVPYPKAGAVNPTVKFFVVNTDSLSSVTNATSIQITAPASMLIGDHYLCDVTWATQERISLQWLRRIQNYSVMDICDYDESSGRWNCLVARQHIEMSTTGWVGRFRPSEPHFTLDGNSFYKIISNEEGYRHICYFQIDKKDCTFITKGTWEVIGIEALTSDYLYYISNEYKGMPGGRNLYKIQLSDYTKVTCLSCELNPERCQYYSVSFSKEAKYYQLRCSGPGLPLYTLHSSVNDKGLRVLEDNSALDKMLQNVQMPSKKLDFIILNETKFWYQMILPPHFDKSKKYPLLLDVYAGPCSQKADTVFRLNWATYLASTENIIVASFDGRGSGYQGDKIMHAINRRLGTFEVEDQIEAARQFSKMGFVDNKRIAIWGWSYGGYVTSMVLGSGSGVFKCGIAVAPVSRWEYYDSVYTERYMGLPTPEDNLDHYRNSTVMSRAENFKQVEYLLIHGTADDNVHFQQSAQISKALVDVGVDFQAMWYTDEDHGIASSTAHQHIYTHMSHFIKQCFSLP
T3 sequence (P27487 39-766 limits assumed): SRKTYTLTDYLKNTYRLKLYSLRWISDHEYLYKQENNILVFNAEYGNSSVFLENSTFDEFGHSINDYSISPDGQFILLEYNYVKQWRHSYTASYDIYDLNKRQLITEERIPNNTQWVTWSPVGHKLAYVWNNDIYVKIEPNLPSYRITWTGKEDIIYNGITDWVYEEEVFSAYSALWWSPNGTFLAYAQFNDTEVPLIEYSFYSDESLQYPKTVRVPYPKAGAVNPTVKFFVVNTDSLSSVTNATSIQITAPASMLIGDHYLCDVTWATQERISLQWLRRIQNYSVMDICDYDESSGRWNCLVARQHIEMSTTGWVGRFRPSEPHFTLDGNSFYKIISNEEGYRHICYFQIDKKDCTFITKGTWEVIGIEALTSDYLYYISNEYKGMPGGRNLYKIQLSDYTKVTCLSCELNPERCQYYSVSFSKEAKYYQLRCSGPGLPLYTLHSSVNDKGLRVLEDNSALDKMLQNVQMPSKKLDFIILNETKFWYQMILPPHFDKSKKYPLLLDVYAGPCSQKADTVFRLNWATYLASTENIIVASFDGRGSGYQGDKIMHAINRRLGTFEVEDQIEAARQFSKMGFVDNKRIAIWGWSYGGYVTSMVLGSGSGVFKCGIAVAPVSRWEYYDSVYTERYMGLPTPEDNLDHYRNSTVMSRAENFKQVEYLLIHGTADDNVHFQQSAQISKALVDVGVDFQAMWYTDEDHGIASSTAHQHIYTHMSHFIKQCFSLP
T2 sequence (P14740 37-767 limits assumed): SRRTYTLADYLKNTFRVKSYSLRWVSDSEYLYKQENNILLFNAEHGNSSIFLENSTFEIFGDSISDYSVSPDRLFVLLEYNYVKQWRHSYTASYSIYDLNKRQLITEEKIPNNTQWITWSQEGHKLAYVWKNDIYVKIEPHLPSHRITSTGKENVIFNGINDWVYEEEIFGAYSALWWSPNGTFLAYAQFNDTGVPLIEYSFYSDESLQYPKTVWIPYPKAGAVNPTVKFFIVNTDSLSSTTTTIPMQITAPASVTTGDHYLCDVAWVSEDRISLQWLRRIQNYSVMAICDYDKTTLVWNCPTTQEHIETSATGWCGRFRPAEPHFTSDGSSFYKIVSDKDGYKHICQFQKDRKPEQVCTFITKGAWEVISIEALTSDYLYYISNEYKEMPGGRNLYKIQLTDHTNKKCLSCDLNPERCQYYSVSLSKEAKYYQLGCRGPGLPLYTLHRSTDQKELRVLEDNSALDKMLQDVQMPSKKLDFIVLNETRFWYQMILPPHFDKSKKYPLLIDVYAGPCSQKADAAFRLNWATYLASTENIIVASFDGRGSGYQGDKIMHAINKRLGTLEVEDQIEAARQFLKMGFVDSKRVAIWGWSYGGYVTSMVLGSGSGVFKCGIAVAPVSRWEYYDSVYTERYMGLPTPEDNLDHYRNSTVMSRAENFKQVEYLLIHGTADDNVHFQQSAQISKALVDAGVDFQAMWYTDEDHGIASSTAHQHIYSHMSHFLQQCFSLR

Turning to `N#C[C@@H]1CSCN1C(=O)CNC1CCCCC1` [Ex. 1, 3-[(cyclohexyl)amino]acetyl-4-cyano-(R)-thiazolidine monohydrochloride], the values for the IC50 (in assay [1]; on rat plasma DPP-IV; against human plasma DPP-IV) were 7 nM, 10 nM and 10 nM, respectively.

Consider `CC(C)OCCCNCC(=O)N1CSC[C@H]1C#N` [Ex. 2, 3-[(3-isopropoxypropyl)amino]acetyl-4-cyano-(R)-thiazolidine monohydrochloride], for which the IC50 is 7 nM in assay [1], 1 nM on rat plasma DPP-IV and 5 nM at human plasma DPP-IV.

Consider `CC(C)NCC(=O)N1CSC[C@H]1C#N` [Ex. 3, 3-[(isopropyl)amino]acetyl-4-cyano-(R)-thiazolidine monohydrochloride], for which the IC50 came out at 6 nM in assay [1], 3 nM against rat plasma DPP-IV and 3 nM on human plasma DPP-IV.
